Results on four compounds are retold here after publication PMC12285946, “Investigation of the Cytotoxicity of Cu(II), Au(III), and Pd(II) Complexes with 2,4-Dithiouracil and 6-Propyl-2-thiouracil Derivatives” (BioTech, 2025).

The subject of data set [1] is Vero cell line (kidney cells from African green monkey). As to the kind of experiment: MTT cell viability assay, Vero normal cell line. The class given is cell-based. The following applies: for Cytotoxic Concentration (CD50): Vero normal cell line, MTT, 72 h. As to the method:
(§1) To assess the in vitro biocompatibility of the tested compounds, a series of cell viability assays were conducted on human cervical carcinoma cell lines (HeLa), as well as on normal Vero cells (kidney cells from the African green monkey). All cell lines were obtained from the German Collection of Microorganisms and Cell Cultures (DSMZ GmbH, Braunschweig, Germany). The cell cultures were maintained in DMEM (Dulbecco’s Modified Eagle Medium) (Gibco Thermofisher Scientific, 168 Third Avenue, Waltham, MA, USA, 02451) growth medium, supplemented with 10% fetal bovine serum (FBS, Sigma-Aldrich, Darmstadt, Germany) and 5% L-glutamine (Sigma-Aldrich, Darmstadt, Germany) and incubated under controlled conditions of 37 °C in a humidified atmosphere with 5% CO2.
(§2) The experimental approach included a series of cytotoxicity assays to determine the extent of cell proliferation inhibition by the synthesized complexes and their free ligands. Cell viability was quantified using a standard MTT-based colorimetric assay. Exponentially growing cells were harvested and seeded (100 μL per well) into 96-well plates at an appropriate density—3 × 10^5 for HeLa and Vero cells. The cells were exposed to various concentrations of the tested compounds, ranging from 0.0001 to 10 mg/mL, and incubated for 72 h.
(§3) Statistical significance was established at p ≤ 0.05.

The subject of data set [2] is HeLa cell line (human cervical carcinoma). As to the kind of experiment: MTT cell viability assay, HeLa tumor cell line. The following applies: for Cytotoxic Concentration (CD50): MTT, 72 h. The data set is classed as cell-based. How it is done:
as §1, §2, §3
On the technique in general: Formazan colour is commonly taken as a measure of viable cells.

Another data set relates to HeLa cell lines. As to conditions: cited from earlier work.

Each structure is given as a SMILES string.

Consider `Sc1ccnc(S)n1` [2,4-dithiouracil], for which the “Cytotoxic Concentration (CD50)” value is 1.421 mM in data set [1] and 0.3167 mM in data set [2].

In the case of `CCCc1cc(=O)[nH]c(=S)[nH]1` [6-propyl-2-thiouracil], the “Cytotoxic Concentration (CD50)” value in data set [1] stood at 0.6068 mM; in data set [2], 0.0955 mM. The “cytotoxic activity relative to 2,4-dithiouracil” value in data set [1] (normal cell line (Vero)) is on record as “two times stronger”; in data set [2], “three times”.

Turning to `N.N.[Cl][Pt][Cl]` [Cisplatin], in the data set on HeLa cell lines (0.15 mg/mL, 24 h, HeLa), the “reduction in cell viability” value is “about 10%”. Also, the “concentration leading to a significant loss of cell viability” value in the data set with HeLa cell lines (HeLa, on average) is 0.003 mg/mL. For the same compound, the “concentration needed for complete inhibition of viability” value in the data set on HeLa cell lines (human cervical carcinoma cell line) was “higher than 1.5 mg/mL”.

In the case of `N.N.O=C([O-])C1(C(=O)[O-])CCC1.[Pt+2]` [carboplatin], the “concentration yielding complete inhibition of cell viability” value in the data set on HeLa cell lines (HeLa) was 1 mg/mL.
